What was measured:
BXPC-3 cells = assay: Stimulation of AKT phosphorylation in BXPC-3 cells (pAKT ELISA); assay type: cell-based; conditions: 10 min stimulation, doses in M (Table 4), 6x-Histidine-tagged fusion proteins
Protocol: (§1) Fusion proteins comprising IGF-1 and a cartilage matrix binding domain were prepared as described above. Six fusion proteins were prepared: GF-Fus1 (6x-Histidine-tagged), GF-Fus2(6x-Histidine-tagged), GF-Fus3 (6x-Histidine-tagged), GF-Fus4 (6x-Histidine-tagged), GF-Fus5 (6x-Histidine-tagged), and GF-Fus6 (6x-Histidine-tagged). In order to ensure that the growth factor portion of the fusion protein was active in the fusion proteins, each construct was tested for its ability to stimulate AKT phosphorylation. Wild-type IGF-1 (wtIGF) was included as a control. Bovine chondrocytes were stimulated with a range of doses of each fusion protein, and pAKT levels were measured by ELISA.
For ligand stimulation, chondrocytes were seeded at 200,000 cells/well into 96-well tissue culture plates with 100 μL of chondrocyte culture medium with fetal bovine serum (10% v/v, Life Technologies Cat#16140071). Alternatively, BXPC-3 cells, a pancreatic adenocarcinoma cell line (ATCC® CRL-1687™), were seeded at 30,000 cells/well into 96-well tissue culture plates with 100 μL of BXPC-3 medium (RPMI-1640, e.g., ATCC® 30-2001™), with L-glutamine (2 mM), Penicillin-Streptomycin (1×, Gibco® 15140-122), Fetal Bovine Serum (10% v/v, Life Technologies Cat#16140071)). After 24 hrs, both chondrocytes and BXPC-3 cells were rinsed with 100 μL of sterile PBS (pH=7.4) per well and 100 μl of chondrocyte or BXPC-3 culture medium (without fetal bovine serum) was added to the corresponding cell type. After an additional 24 hrs, cells were stimulated with the doses of fusion proteins set forth in Table 4 by adding 25 μL of fusion protein at a concentration 5 times greater than the concentration listed in Table 4 to the 100 μL of medium already in the wells. After 10 min of stimulation, fusion protein was removed and wells were rinsed in ice cold PBS (pH=7.4). 50 μL/well of cell extraction buffer (Invitrogen cat# FNN0011) was added and incubated with shaking at 4° C. for 30 minutes. Lysates were then frozen at −80° C.
Corning high binding 384 well black ELISA plates (cat#3577) are coated with 30 μL of capture antibody at 4 μg/mL (anti-AKT1 total capture antibody, Upstate, Cat#05-591MG) in PBS (pH=7.4) for 16 hours at room temperature, washed and blocked with […] 2% bovine serum albumin (Sigma Cat# A3294) in PBS (pH=7.4) for 1 hour at room temperature. 20 μL of thawed lysates or recombinant pAKT standards (ten 2-fold serial dilutions of 400 ng recombinant human AKT, active (Upstate, Cat#14-276) in PBS (pH=7.4) containing 50% v/v Cell extraction buffer (Invitrogen Cat#FNN0011), 1% bovine serum albumin (Sigma Cat# A3294), 0.05% Tween20) are applied to the coated plate and incubated for 2 hours at room temperature. After washing 3 times with 100 μL/well of 0.05% Tween-20/PBS (pH=7.4) bound phospho-AKT is detected using Phospho-AKT (Ser473)(587F11)-biotinylated (Cell Signaling, Cat#5102), streptavidin-HRP (R&D Systems Cat# DY998, Part #890803), SuperSignal ELISA PicoChemiluminescent Substrate (Thermo Scientific Cat#37069), using a luminometer to detect light emissions at 425 nm.

[1] = test system: AKT phosphorylation in bovine chondrocytes; assay: Stimulation of AKT phosphorylation in primary bovine chondrocytes (pAKT ELISA); assay type: cell-based; conditions: 10 min stimulation, doses in M (Table 4), 6x-Histidine-tagged fusion proteins
Protocol: as §1
Bovine chondrocytes are isolated from the femoral chondyles of 2-4 week old bovine calves. Knee joints are mounted by removing all tissue surrounding the femur, removing the femoral head with a bone saw or hack saw, and clamping in a tissue vice. Joints are aseptically opened, removing the patella, tibia and fibula. Using a scalpel, cartilage is sliced off the femoral chondyles and placed in sterile PBS (pH=7.4) containing penicillin-streptomycin (1×, Gibco 15140-122). PBS is subsequently removed and pronase solution (50 mL per 5 g of tissue), consisting of high glucose DMEM (Life Technologies Cat#11965-092), fetal bovine serum (10% v/v, Life Technologies Cat#16140071), HEPES (100 mM, Gibco 15630-080), non-essential amino acids (1×, Sigma M7145), penicillin-streptomycin (1×, Gibco 15140-122), proline (400 μM, Sigma P5607-256), Protease Type XIV (2 mg/mL, Sigma Cat# P5147), is added for 1 hour with stirring. After rinsing twice with sterile PBS (pH=7.4), collagenase solution (50 mL per 5 g of tissue), consisting of high glucose DMEM (Life Technologies Cat#11965-092), fetal bovine serum (10% v/v, Life Technologies Cat#16140071), HEPES (100 mM, Gibco 15630-080), NEAA(1×, Sigma M7145), Penicillin-Streptomycin (1×, Gibco 15140-122), 0.25 mg/mL Collagenase P (Roche Cat#11 249 002 001), is added for 18 hours with stirring. Cell are strained, washed, and resuspended in chondrocyte culture medium (low glucose DMEM (1× Gibco 11885-084), Penicillin-Streptomycin (1×, Gibco 15140-122), non-essential amino acids (1×, Sigma M7145), and HEPES (100 mM, Gibco 15630-080)) with fetal bovine serum (10% v/v, Life Technologies Cat#16140071).
For ligand stimulation, chondrocytes were seeded at 200,000 cells/well into 96-well tissue culture plates with 100 μL of chondrocyte culture medium with fetal bovine serum (10% v/v, Life Technologies Cat#16140071). […]

Substance	logEC50 Mean (BXPC-3 cells)	logEC50 Mean [1]
GF-Fus1: IGF-1 variant polypeptide Long [R^3]-IGF-1, no fused binding domain; used 6x-Histidine-tagged as control [reference compound]	−8.605	−9.227
GF-Fus3: C-terminal fusion IGF-1(LR3)-PRELP heparin binding domain	−9.231	−9.175
GF-Fus5: IGF-1(LR3) fused to CNA35 CB domain	−8.969	
GF-Fus6: IGF-1(LR3) fused to CNA344 CB domain	−8.832	
wtIGF: Wild-type IGF-1 (R&D systems 291-G1), control [reference compound]	−9.081	−9.071

Source: patent US20170327556A1, “CARTILAGE-BINDING FUSION PROTEINS” (Merrimack Pharmaceuticals, Inc., priority 2013, published 2017)
